In patent US20150133493A1, “COUMARIN-BASED COMPOUNDS FOR THE TREATMENT OF ALZHEIMER'S DISEASE AND CANCER” (Sloan-Kettering Institute for Cancer Research, priority 2008, published 2015):
Entries after “also recorded” stand apart in the source; their conditions may differ.

These compounds were tested on N2a mouse neuroblastoma cells that stably express Swedish-mutated APP (assay: Cell-based assay of secreted Aβ42, Aβ40, Aβ38 in APPsw-N2A cells). Settings: 24 hrs, in words, CS-1 up to 30 μM.
Procedure: FIG. 3. Cellular evaluation of the coumarin-dimer CS-1 and its selective inhibition of Aβ42. Compounds were incubated with the APPsw-N2A mouse neuroblastoma cells for 24 hours and media were analyzed by biotinylated 4G8 and ruthenylated antibodies specific for each respective cleavage product. […] (d) Immunoprecipitation mass spectrometry analysis of CS-1 effect on secreted β-amyloid species. Aβ peptides were immunoprecipitated using 4G8 antibody and isolated with Protein G+/A agarose beads. Samples were analyzed by MALDI-MS. Samples shown are representative and each data point was performed in triplicate. (e) Cell-based Notch cleavage assay. HEK-293 cells were transfected with ΔE Notch construct and then Compound E and CS-1 were evaluated for their ability to inhibit γ-secretase-mediated Notch intracellular domain production. […] Western blot is representative and was performed in triplicate. (f) Effect of CS-1 on AICD production. N2A APPsw cell membrane was prepared and incubated with the indicated concentrations of CS-1 at 37° C. for 2 hours. The generated AICD and APP-CTFs were detected by Western Blotting using APPc antibody. Western blot is representative and was performed in triplicate.
We next set out to determine if the selective inhibition of Aβ42 was maintained in a cell-based system for APP processing. First, we compared our lead compound CS-1 (FIG. 3a) to Compound E (FIG. 3b) and the GSM compound indomethacin (FIG. 3c). N2a mouse neuroblastoma cells that stably express Swedish-mutated APP substrate were treated with the indicated compounds for 24 hrs at 37° C. Following 24 hr incubation period, the medium was collected from the cells and assayed for secreted Aβ42, Aβ40, and Aβ38. […] The result for indomethacin mirrored those findings by Kukar et al. whereby a different cell-based system was utilized (17), further validating our assay system for analysis of these Aβ species. […] This may reflect subtle variations between the cellular and in vitro conformations of γ-secretase. Nevertheless, the cell-based studies confirmed that CS-1 maintains a preference for inhibition of the γ-secretase mediated production of Aβ42 over Aβ40 or Aβ38, which is distinct to previously reported GSMs (17) and inhibitors (14-15, 18).
(§1) Cell membranes and solubilized γ-secretase were prepared as described previously (36). The in vitro and cell γ-secretase assays detecting either Aβ38, Aβ40, or Aβ42 cleavage were performed similar as previously described (21, 36). Cleaved product was detected using ruthenylated antibodies that recognize specific APP cleavage sites (Aβ31-38*, G2-10*, or G2-11* antibody for Aβ38, Aβ40, or Aβ42 respectively). The Km and Vmax in the presence and absence of γ-secretase inhibitors were analyzed by non-linear curve fit using the software SigmaPlot 8.0 with the Michaelis-Menten equation (v=Vm [S]/(Km+[S]; v: initial rate; Vm: maximum velocity; Km: the Michaelis-Menten constant, S: substrate).

| Structure (SMILES) | effect on secreted Aβ38 production | effect on secreted Aβ40 production | effect on secreted Aβ42 production |
| --- | --- | --- | --- |
| COc1ccc2c(c1)c(CC(=O)O)c(C)n2C(=O)c1ccc(Cl)cc1 [indomethacin] | potently increases; also recorded: significantly enhanced | little effect; also recorded: no effect | reduces; also recorded: abrogated |

The compounds below were run against T1, γ-secretase (Homo sapiens, UniProt P49768) (assay: In vitro γ-secretase activity assay, Aβ42 production (ECL)). Settings: in vitro inhibition of γ-secretase activity that generates Aβ42; 2.5 hr at 37° C., ECL detection.
T1 construct: endogenous in cells
Type: biochemical
Procedure: FIG. 2. In vitro characterization of coumarin-dimer allosteric GSIs against various γ-secretase cleavage products. […] The IC50 values were calculated from the dose response curves using a non-linear regression analysis in Prism software. […] The three β-amyloid-detection in vitro assays were modified from our previously reported assay (21) using a biotinylated substrate that eliminated the requirement of anti-β-amyloid biotinylated antibody. Ruthenylated antibodies that detected the -40, -42, or -38 cleavage site were incorporated to detect proteolysis indicative of γ-secretase activity. In vitro Notch assay utilized a recombinant transmembrane portion of the Notch peptide and anti-Notch1 SM320 antibody in conjunction with ruthenylated anti-rabbit secondary antibodies. Electrochemiluminescence was quantified on an Analyzer (BioVeris).
Briefly, recombinant peptide substrate was incubated with γ-secretase (40 μg/ml) in the presence or absence of test compound. […] The reaction was incubated for 2.5 hr at 37° C. and stopped by adding RIPA buffer (150 mM NaCl, 1.0% NP-40, 0.5% sodium deoxycholate, 0.1% SDS, 50 mM Tris HCl, pH 8.0). […] The amount of product was determined using synthetic peptide or recombinant standards.
as §1

| Structure (SMILES) | IC50 [µM] |
| --- | --- |
| O=c1oc2ccccc2c(O)c1C(/C=C/c1cc(F)c(F)c(F)c1)c1c(O)c2ccccc2oc1=O [(trans)-1] | 2.9 |
| COc1ccc(/C=C/C(c2c(O)c3ccccc3oc2=O)c2c(O)c3ccccc3oc2=O)cc1 [(trans)-258] | 5.6 |
| O=c1[nH]c2ccccc2c(O)c1C(c1cc(F)c(F)c(F)c1)c1c(O)c2ccccc2[nH]c1=O [Compound 45] | 3.4 |
| O=c1sc2ccccc2c(O)c1C(c1cc(F)c(F)c(F)c1)c1c(O)c2ccccc2sc1=O [Compound 53] | 0.5 |
| O=c1oc2ccccc2c(O)c1C(c1cc(F)cc(F)c1)c1c(O)c2ccccc2oc1=O [Compound 61] | 0.17 |
| COc1ccc(C(c2c(O)c3ccccc3oc2=O)c2c(O)c3ccccc3oc2=O)cc1F [Compound 77] | 2.8 |
| Cc1ccc2oc(=O)c(C(c3cc(F)c(F)c(F)c3)c3c(O)c4cc(C)ccc4oc3=O)c(O)c2c1 [Compound 197] | 1.59 |
| O=c1oc2ccccc2c(O)c1C(Cc1ccc(F)cc1)c1c(O)c2ccccc2oc1=O [Compound 199] | 0.9 |
| O=c1oc2ccc(F)cc2c(O)c1C(c1cc(F)c(F)c(F)c1)c1c(O)c2cc(F)ccc2oc1=O [Compound 203] | 0.9 |
| O=c1oc2ccccc2c(O)c1C(c1cccc(C(F)(F)F)c1)c1c(O)c2ccccc2oc1=O [Compound 209] | 0.8 |
| CCc1ccc(C(c2c(O)c3ccccc3oc2=O)c2c(O)c3ccccc3oc2=O)cc1 [Compound 210] | 1.9 |
| C/C=C/C=C/C(c1c(O)c2ccccc2oc1=O)c1c(O)c2ccccc2oc1=O [Compound 257] | 7.3 |
| O=c1oc2ccccc2c(O)c1C1c2cc(F)c(F)cc2Oc2c1c(=O)oc1ccccc21 (stereo not drawn) [Compound 369] | 0.9 |

What follows are compounds tested against T1, γ-secretase (assay: In vitro γ-secretase activity assay, Aβ40 production (ECL)). Settings: in vitro inhibition of γ-secretase activity that generates Aβ40; 2.5 hr at 37° C., ECL detection.
Type: biochemical
Procedure: FIG. 2. In vitro characterization of coumarin-dimer allosteric GSIs against various γ-secretase cleavage products. The potency of 7 unique coumarin-based γ-secretase inhibitors were evaluated for efficacy against γ-secretase-mediated production of Aβ40, Aβ42, Aβ38, and Notch. Additionally, the pan-GSI Compound E was also examined in these assays. The IC50 values were calculated from the dose response curves using a non-linear regression analysis in Prism software. IC50 values are presented with standard deviation (n=3 for each data point). The three β-amyloid-detection in vitro assays were modified from our previously reported assay (21) using a biotinylated substrate that eliminated the requirement of anti-β-amyloid biotinylated antibody. Ruthenylated antibodies that detected the -40, -42, or -38 cleavage site were incorporated to detect proteolysis indicative of γ-secretase activity. In vitro Notch assay utilized a recombinant transmembrane portion of the Notch peptide and anti-Notch1 SM320 antibody in conjunction with ruthenylated anti-rabbit secondary antibodies. Electrochemiluminescence was quantified on an Analyzer (BioVeris). The selectivity ratio for Aβ42 inhibition over Aβ40 and Notch are indicated in the two far right columns.
The assay protocol employed was a modified version of that described in Li et al., 2000, Proc. Nat'l Acad. Sci. USA 97:6183-643, incorporated herein by reference. Briefly, recombinant peptide substrate was incubated with γ-secretase (40 μg/ml) in the presence or absence of test compound. The reaction mixture contained 0.25% CHAPSO, 0.1 μg/μl BSA, protease inhibitor, 50 mM PIPES, pH 7.0, 5 mM MgCl2, 5 mM CaCl2 and 150 mM KCl. The reaction was incubated for 2.5 hr at 37° C. and stopped by adding RIPA buffer (150 mM NaCl, 1.0% NP-40, 0.5% sodium deoxycholate, 0.1% SDS, 50 mM Tris HCl, pH 8.0). The products were detected with various antibody combinations using electrochemiluminescence (ECL) technology as previously described in Li et al., 2000, Proc. Nat'l Acad. Sci. USA 97:6183-643; Lai et al., 2003, J. Biol. Chem. 278: 22475-22481; and Yin et al., 2007, J. Biol. Chem. 282:23639-23644. The amount of product was determined using synthetic peptide or recombinant standards.
as §1

| Structure (SMILES) | IC50 [µM] |
| --- | --- |
| O=c1oc2ccccc2c(O)c1C(/C=C/c1cc(F)c(F)c(F)c1)c1c(O)c2ccccc2oc1=O [(trans)-1] | 3.7 |
| COc1ccc(/C=C/C(c2c(O)c3ccccc3oc2=O)c2c(O)c3ccccc3oc2=O)cc1 [(trans)-258] | 21.5 |
| O=c1[nH]c2ccccc2c(O)c1C(c1cc(F)c(F)c(F)c1)c1c(O)c2ccccc2[nH]c1=O [Compound 45] | 8 |
| O=c1sc2ccccc2c(O)c1C(c1cc(F)c(F)c(F)c1)c1c(O)c2ccccc2sc1=O [Compound 53] | 1.3 |
| O=c1oc2ccccc2c(O)c1C(c1cc(F)cc(F)c1)c1c(O)c2ccccc2oc1=O [Compound 61] | 0.34 |
| COc1ccc(C(c2c(O)c3ccccc3oc2=O)c2c(O)c3ccccc3oc2=O)cc1F [Compound 77] | 6.2 |
| Cc1ccc2oc(=O)c(C(c3cc(F)c(F)c(F)c3)c3c(O)c4cc(C)ccc4oc3=O)c(O)c2c1 [Compound 197] | 3.26 |
| O=c1oc2ccccc2c(O)c1C(Cc1ccc(F)cc1)c1c(O)c2ccccc2oc1=O [Compound 199] | 4 |
| O=c1oc2ccc(F)cc2c(O)c1C(c1cc(F)c(F)c(F)c1)c1c(O)c2cc(F)ccc2oc1=O [Compound 203] | 2.6 |
| O=c1oc2ccccc2c(O)c1C(c1cccc(C(F)(F)F)c1)c1c(O)c2ccccc2oc1=O [Compound 209] | 2 |
| CCc1ccc(C(c2c(O)c3ccccc3oc2=O)c2c(O)c3ccccc3oc2=O)cc1 [Compound 210] | 4.6 |
| C/C=C/C=C/C(c1c(O)c2ccccc2oc1=O)c1c(O)c2ccccc2oc1=O [Compound 257] | 9.9 |
| O=c1oc2ccccc2c(O)c1C1c2cc(F)c(F)cc2Oc2c1c(=O)oc1ccccc21 (stereo not drawn) [Compound 369] | 2.6 |

Same assay, conditions: ratio of IC50 for Aβ40 to IC50 for Aβ42

| Structure (SMILES) | Aβ40/Aβ42 ratio |
| --- | --- |
| O=c1oc2ccccc2c(O)c1C(/C=C/c1cc(F)c(F)c(F)c1)c1c(O)c2ccccc2oc1=O [(trans)-1] | 1.3 |
| COc1ccc(/C=C/C(c2c(O)c3ccccc3oc2=O)c2c(O)c3ccccc3oc2=O)cc1 [(trans)-258] | 3.8 |
| O=c1[nH]c2ccccc2c(O)c1C(c1cc(F)c(F)c(F)c1)c1c(O)c2ccccc2[nH]c1=O [Compound 45] | 2.4 |
| O=c1sc2ccccc2c(O)c1C(c1cc(F)c(F)c(F)c1)c1c(O)c2ccccc2sc1=O [Compound 53] | 2.6 |
| O=c1oc2ccccc2c(O)c1C(c1cc(F)cc(F)c1)c1c(O)c2ccccc2oc1=O [Compound 61] | 2.0 |
| COc1ccc(C(c2c(O)c3ccccc3oc2=O)c2c(O)c3ccccc3oc2=O)cc1F [Compound 77] | 2.2 |
| Cc1ccc2oc(=O)c(C(c3cc(F)c(F)c(F)c3)c3c(O)c4cc(C)ccc4oc3=O)c(O)c2c1 [Compound 197] | 2.1 |
| O=c1oc2ccccc2c(O)c1C(Cc1ccc(F)cc1)c1c(O)c2ccccc2oc1=O [Compound 199] | 4.4 |
| O=c1oc2ccc(F)cc2c(O)c1C(c1cc(F)c(F)c(F)c1)c1c(O)c2cc(F)ccc2oc1=O [Compound 203] | 2.9 |
| O=c1oc2ccccc2c(O)c1C(c1cccc(C(F)(F)F)c1)c1c(O)c2ccccc2oc1=O [Compound 209] | 2.5 |
| CCc1ccc(C(c2c(O)c3ccccc3oc2=O)c2c(O)c3ccccc3oc2=O)cc1 [Compound 210] | 2.4 |
| C/C=C/C=C/C(c1c(O)c2ccccc2oc1=O)c1c(O)c2ccccc2oc1=O [Compound 257] | 1.4 |
| O=c1oc2ccccc2c(O)c1C1c2cc(F)c(F)cc2Oc2c1c(=O)oc1ccccc21 (stereo not drawn) [Compound 369] | 2.9 |
